Source: patent US12448383B2, “Compounds and methods for treatment of viral infections” (priority 2022, dated 2025)
pEC50: −log10 of the molar value.

What was measured:
[1] = CC50 MT4 cytotoxicity (Cell-Titer Glo); format: cell-based; details: human
How it was run: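 CC50 values are the concentrations cutting viability by 50%, fitted by non-linear regression against untreated (100%) and 2 μM puromycin (0%) controls. Cell-Titer Glo luminescence measured after 4-5 days at 37° C exposure of uninfected MT-4 and HEp-2 cells to 3-fold dilutions spanning 15 nM to 100,000 nM.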

[2] = physchem
[3] = system: Respiratory syncytial virus recombinant with luciferase (RSV-Luc5) in HEp-2 cells; assay: microbe, parasite or virus in culture; format: cell-based; details: human respiratory syncytial virus, HEp-2, read-out: EC50 RSVFluc-Hep2 384 V2
[4] = system: Respiratory syncytial virus recombinant with luciferase (RSV-Luc5) in Normal Human Bronchial Epithelial (NHBE) cells; assay: microbe, parasite or virus in culture; format: cell-based; details: read-out: EC50 RSVFluc-NHBE 384 V2
[5] = system: SARS Coronavirus 2 recombinant with NanoLuc (SARS-CoV2-NLuc) in A549-hACE2 cells; assay: microbe, parasite or virus in culture; format: cell-based; details: A549; read-out: EC50 SARS CoV2 NanoLuc A549 384
[6] = GI S9 stability - no PMSF; format: in vitro ADME; set-up: GIS9-HUMAN-NoPMSF T1/2: unit: min; details: human intestinal S9, PMSF-free; for half-life at 2 µM: pH 7.4, read-out: GIS9-HUMAN-NoPMSF T1/2
How it was run: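 Stability was assessed by Q-Exactive LC-MS peak area ratios against internal standard, tracking loss of parent and appearance of nucleoside metabolite Reference Compound A. Incubations used 2 μM compound in 1 mg/mL intestinal S9 without PMSF (PBS, pH 7.4), with six samples taken over 120 min.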

[7] = system: Caco-2 cells (clone C2BBe1); assay: CACO-2 permeability; format: in vitro ADME; set-up: unit not given here; details: for DM Caco2 A to B: apical to basolateral, donor pH 6.5, receiver pH 7.4; for DM Caco2 B to A: basolateral to apical
How it was run: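 A-to-B and B-to-A flux measured by LC-MS/MS from receiver samples taken at 1 and 2 h, with donor sampled at 0 and 2 h and recovery checked. Buffers: pH 6.5 HBSS with 200 μM BNPP on the donor side, pH 7.4 with BSA on the receiver side. Monolayers were 21-day cultures, TEER-verified, in duplicate wells.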

[8] = Plasma stability; format: in vitro ADME; set-up: unit not given here; details: 37° C., 2 μM substrate
How it was run: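 LC-MS (Q-Exactive, 5 ppm tolerance, 0.1% formic acid water/acetonitrile gradient) quantified compound in quenched aliquots. Aliquots were taken at 0.05, 0.5, 1, 2, 3 and 4 hr and quenched with internal-standard solution, and supernatants were diluted with water after centrifugation.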

| SMILES | CC50 [1] | logD [2] | pEC50 [3] | pEC50 [4] | pEC50 [5] | half-life at 2 µM [6] | DM Caco2 A to B [7] | DM Caco2 B to A [7] | STA Human Plasma 37 [8] | GIS9-HUMAN-NoPMSF T1/2 [6] |
| --- | --- | --- | --- | --- | --- | --- | --- | --- | --- | --- |
| N#C[C@@]1(c2ccc3c(N)ncnn23)O[C@H](COC(=O)OCOP(=O)(O)O)[C@@H](O)[C@H]1O [Compound 40, ((2R,3S,4R,5R)-5-(4-aminopyrrolo[2,1-f][1,2,4]triazin-7-yl)-5-cyano-3,4-dihydroaytetrahydrofuran-2-yl)methyl ((phosphonooxy)methyl) carbonate] | > 50 µM | < 0.3 | 5.45 | 5.43 |  |  |  |  |  |  |
| COC(=O)Nc1ncnn2c([C@]3(C#N)O[C@H](COC(=O)OCC(C)(C)C)[C@@H](OC(=O)OC)[C@H]3OC(=O)OC)ccc12 [Compound 103, methyl (7-((2R,3R,4R,5R)-2-cyano-3,4-bis((methoxycarbonyl)oxy)-5-((((neopentyloxy)carbonyl)oxy)methyl)tetrahydrofuran-2-yl)pyrrolo[2,1-f][1,2,4]triazin-4-yl)carbamate] | > 50 µM | 3.2 | 4.68 | 4.75 | < 4.30 |  |  |  |  |  |
| COC1O[C@H]2[C@@H](O1)[C@](C#N)(c1ccc3c(N)ncnn13)O[C@@H]2COC(=O)OC(C)C (stereo partly drawn) [Compound 107, ((3aR,4R,6R,6aR)-6-(4-aminopyrrolo[2,1-f][1,2,4]triazin-7-yl)-6-cyano-2-methoxytetrahydrofuro[3,4-d][1,3]dioxol-4-yl)methyl isopropyl carbonate] | > 50 µM | 2.5 | < 4.30 | < 4.30 | < 4.30 |  |  |  |  |  |
| CC(C)(C)OP(=O)(OCOC(=O)OC[C@H]1O[C@@](C#N)(c2ccc3c(N)ncnn23)[C@H](O)[C@@H]1O)OC(C)(C)C [Compound 110, ((2R,3S,4R,5R)-5-(4-aminopyrrolo[2,1-f][1,2,4]triazin-7-yl)-5-cyano-3,4-dihydroxytetrahydrofuran-2-yl)methyl (((di-tert-butoxyphosphoryl)oxy)methyl) carbonate] | > 50 µM | 1.7 | 4.97 | 4.69 |  |  |  |  |  |  |
| COc1ccc(CCOC(=O)OC[C@H]2O[C@@](C#N)(c3ccc4c(N)ncnn34)[C@H](O)[C@@H]2O)cc1 [Compound 112, ((2R,3S,4R,5R)-5-(4-aminopyrrolo[2,1-f][1,2,4]triazin-7-yl)-5-cyano-3,4-dihydroxytetrahydrofuran-2-yl)methyl (4-methoxyphenethyl) carbonate] | > 50 µM | 1.8 | 6.74 | 6.34 | 5.68 | 1.77 min | 2.53 | 15.81 | 28.8 |  |
| CC1(COC(=O)OC[C@H]2O[C@@](C#N)(c3ccc4c(N)ncnn34)[C@H](O)[C@@H]2O)CC1 [Compound 114, ((2R,3S,4R,5R)-5-(4-aminopyrrolo[2,1-f][1,2,4]triazin-7-yl)-5-cyano-3,4-dihydroxytetrahydrofuran-2-yl)methyl ((1-methylcyclopropyl)methyl) carbonate] | > 50 µM | 1.5 | 6.91 | 6.02 | 5.95 | 1.21 min | 2.07 | 11.26 | 26.8 |  |
| CC1(COC(=O)OC[C@H]2O[C@@](C#N)(c3ccc4c(N)ncnn34)[C@H](O)[C@@H]2O)CCC1 [Compound 122, ((2R,3S,4R,5R)-5-(4-aminopyrrolo[2,1-f][1,2,4]triazin-7-yl)-5-cyano-3,4-dihydroxytetrahydrofuran-2-yl)methyl ((1-methylcyclobutyl)methyl) carbonate] | > 50 µM | 1.9 | 6.54 | 5.98 | 6.15 | 0.637 min |  |  | 34.1 |  |
| N#C[C@@]1(c2ccc3c(N)ncnn23)O[C@H](COC(=O)OCC2CC2)[C@@H](O)[C@H]1O [Compound 125, ((2R,3S,4R,5R)-5-(4-aminopyrrolo[2,1-f][1,2,4]triazin-7-yl)-5-cyano-3,4-dihydroxytetrahydrofuran-2-yl)methyl (cyclopropylmethyl) carbonate] | > 50 µM | 1.1 | 6.66 | 6.19 | 5.75 | 0.582 min |  |  | 12.2 |  |
| CCCCCCCCCCCCCCCCCCOC(=O)OC[C@H]1O[C@@](C#N)(c2ccc3c(N)ncnn23)[C@H](O)[C@@H]1O [Compound 126, ((2R,3S,4R,5R)-5-(4-aminopyrrolo[2,1-f][1,2,4]triazin-7-yl)-5-cyano-3,4-dihydroxytetrahydrofuran-2-yl)methyl octadecyl carbonate] | 27.7 µM | > 5.7 |  | 6.29 | 5.79 | 97.6 min | 0.01 | 0.03 | 79.1 |  |
| N#C[C@@]1(c2ccc3c(N)ncnn23)O[C@H](COC(=O)OC23CC(C(F)(F)F)(C2)C3)[C@@H](O)[C@H]1O [Compound 139, [(2R,3S,4R,5R)-5-(4-aminopyrrolo[2,1-f][1,2,4]triazin-7-yl)-5-cyano-3,4-dihydroxy-tetrahydrofuran-2-yl]methyl [3-(trifluoromethyl)-1-bicyclo[1.1.1]pentanyl]carbonate] | > 50 µM | 2.2 |  | 5.79 |  | 1.37 min | 0.99 | 12.98 | 150.07 |  |
| N#C[C@@]1(c2ccc3c(N)ncnn23)O[C@H](COC(=O)OCCCCCC(=O)O)[C@@H](O)[C@H]1O [Compound 140, 6-(((((2R,3S,4R,5R)-5-(4-aminopyrrolo[2,1-f][1,2,4]triazin-7-yl)-5-cyano-3,4-dihydroxytetrahydrofuran-2-yl)methoxy)carbonyl)oxy)hexanoic acid] | > 50 µM | < 0.3 |  | < 4.30 | < 4.30 | 783 min | 0.04 | 0.12 | 1322.1 |  |
| N#C[C@@]1(c2ccc3c(N)ncnn23)O[C@H](COC(=O)OCCCC(=O)O)[C@@H](O)[C@H]1O [Compound 141, 4-(((((2R,3S,4R,5R)-5-(4-aminopyrrolo[2,1-f][1,2,4]triazin-7-yl)-5-cyano-3,4-dihydroxytetrahydrofuran-2-yl)methoxy)carbonyl)oxy)butanoic acid] | > 50 µM | < 0.3 |  | < 4.30 | < 4.30 |  | 0.05 | 0.08 | 902.37 | 789 |
| N#C[C@@]1(c2ccc3c(N)ncnn23)O[C@H](COC(=O)OCCCCC(=O)O)[C@@H](O)[C@H]1O [Compound 142, 5-(((((2R,3S,4R,5R)-5-(4-aminopyrrolo[2,1-f][1,2,4]triazin-7-yl)-5-cyano-3,4-dihydroxytetrahydrofuran-2-yl)methoxy)carbonyl)oxy)pentanoic acid] | > 50 µM | < 0.3 |  | < 4.30 | < 4.30 |  | 0.02 | 0.07 | 1584 | 789 |
| N#C[C@@]1(c2ccc3c(N)ncnn23)O[C@H](COC(=O)OCCCCCCC(=O)O)[C@@H](O)[C@H]1O [Compound 143, 7-(((((2R,3S,4R,5R)-5-(4-aminopyrrolo[2,1-f][1,2,4]triazin-7-yl)-5-cyano-3,4-dihydroxytetrahydrofuran-2-yl)methoxy)carbonyl)oxy)heptanoic acid] | > 50 µM | < 0.3 |  | < 4.30 | 4.45 |  |  |  | 800.58 | 789 |
| CC(C)OC(=O)[C@H](CCOC(=O)OC[C@H]1O[C@@](C#N)(c2ccc3c(N)ncnn23)[C@H](O)[C@@H]1O)N(C)C [Compound 146, isopropyl (2S)-4-[[(2R,3S,4R,5R)-5-(4-aminopyrrolo[2,1-f][1,2,4]triazin-7-yl)-5-cyano-3,4-dihydroxy-tetrahydrofuran-2-yl]methoxycarbonyloxy]-2-(dimethylamino)butanoate] | > 50 µM | 1.5 |  | 5.08 | 5.11 | 174 min | 0.06 | 7.15 | 497.93 |  |
